Laboratory results published in PubChem BioAssay (NCI).
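In this assay, cells in 96-well plates receive the compound at five concentrations for 48 hours. Endpoints are linearly interpolated between the surrounding concentrations. TGI: total growth inhibition.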

Assays:
Assay in all cases: growth of human tumour cells (NCI), 48 h
HOP-92 NSCLC = test system: HOP-92 NSCLC
RXF 393 renal = test system: RXF 393 renal
NCI-H460 lung = test system: NCI-H460 lung
SN12C renal = test system: SN12C renal
KM12 colon = test system: KM12 colon
NCI-H226 lung = test system: NCI-H226 lung
SF-295 CNS = test system: SF-295 CNS
RPMI-8226 leukemia = test system: RPMI-8226 leukemia
IGROV1 ovarian = test system: IGROV1 ovarian
UO-31 renal = test system: UO-31 renal
CAKI-1 renal = test system: CAKI-1 renal
SK-MEL-28 melanoma = test system: SK-MEL-28 melanoma
ACHN renal = test system: ACHN renal
UACC-62 melanoma = test system: UACC-62 melanoma
SNB-19 CNS = test system: SNB-19 CNS
EKVX NSCLC = test system: EKVX NSCLC
OVCAR-3 ovarian = test system: OVCAR-3 ovarian
PC-3 prostate = test system: PC-3 prostate
MDA-MB-435 = test system: MDA-MB-435
NCI/ADR-RES ovarian = test system: NCI/ADR-RES ovarian
SF-268 CNS = test system: SF-268 CNS
OVCAR-4 ovarian = test system: OVCAR-4 ovarian
HL-60(TB) leukemia = test system: HL-60(TB) leukemia
HOP-62 NSCLC = test system: HOP-62 NSCLC
CCRF-CEM leukemia = test system: CCRF-CEM leukemia
SK-MEL-2 melanoma = test system: SK-MEL-2 melanoma
HCT-116 colon = test system: HCT-116 colon
SK-MEL-5 melanoma = test system: SK-MEL-5 melanoma
SF-539 CNS = test system: SF-539 CNS
SR leukemia = test system: SR leukemia
M14 melanoma = test system: M14 melanoma
T-47D breast = test system: T-47D breast
COLO 205 colon = test system: COLO 205 colon
OVCAR-5 ovarian = test system: OVCAR-5 ovarian
NCI-H522 lung = test system: NCI-H522 lung
SK-OV-3 ovarian = test system: SK-OV-3 ovarian
A549 NSCLC = test system: A549 NSCLC
HT29 colon = test system: HT29 colon
MCF7 breast = test system: MCF7 breast
MALME-3M melanoma = test system: MALME-3M melanoma
BT-549 breast = test system: BT-549 breast
MOLT-4 leukemia = test system: MOLT-4 leukemia
U251 CNS = test system: U251 CNS
HCT-15 colon = test system: HCT-15 colon
A498 renal = test system: A498 renal
SW-620 colon = test system: SW-620 colon
MDA-N = test system: MDA-N
NCI-H23 lung = test system: NCI-H23 lung
OVCAR-8 ovarian = test system: OVCAR-8 ovarian
TK-10 renal = test system: TK-10 renal
LOX IMVI melanoma = test system: LOX IMVI melanoma
SNB-75 CNS = test system: SNB-75 CNS
HS 578T breast = test system: HS 578T breast
DU-145 prostate = test system: DU-145 prostate
UACC-257 melanoma = test system: UACC-257 melanoma
786-0 renal = test system: 786-0 renal
MDA-MB-231 breast = test system: MDA-MB-231 breast
K-562 leukemia = test system: K-562 leukemia
HCC-2998 colon = test system: HCC-2998 colon

CCC1([N+](=O)[O-])CC2C=CC1C2 (centres undefined)
TGI (HOP-92 NSCLC): > 100 µM | TGI (RXF 393 renal): > 100 µM | TGI (NCI-H460 lung): > 100 µM | TGI (SN12C renal): > 100 µM | TGI (KM12 colon): > 100 µM | TGI (NCI-H226 lung): > 100 µM | TGI (SF-295 CNS): > 100 µM | TGI (RPMI-8226 leukemia): > 100 µM | TGI (IGROV1 ovarian): > 100 µM | TGI (UO-31 renal): > 100 µM | TGI (CAKI-1 renal): > 100 µM | TGI (SK-MEL-28 melanoma): > 100 µM | TGI (ACHN renal): > 100 µM | TGI (UACC-62 melanoma): > 100 µM | TGI (SNB-19 CNS): > 100 µM | TGI (EKVX NSCLC): > 100 µM | TGI (OVCAR-3 ovarian): > 100 µM | TGI (PC-3 prostate): > 100 µM | TGI (MDA-MB-435): > 100 µM | TGI (NCI/ADR-RES ovarian): > 100 µM | TGI (SF-268 CNS): > 100 µM | TGI (OVCAR-4 ovarian): > 100 µM | TGI (HL-60(TB) leukemia): > 100 µM | TGI (HOP-62 NSCLC): > 100 µM | TGI (CCRF-CEM leukemia): > 100 µM | TGI (SK-MEL-2 melanoma): > 100 µM | TGI (HCT-116 colon): > 100 µM | TGI (SK-MEL-5 melanoma): > 100 µM | TGI (SF-539 CNS): > 100 µM | TGI (SR leukemia): > 100 µM | TGI (M14 melanoma): > 100 µM | TGI (T-47D breast): > 100 µM | TGI (COLO 205 colon): > 100 µM | TGI (OVCAR-5 ovarian): > 100 µM | TGI (NCI-H522 lung): > 100 µM | TGI (SK-OV-3 ovarian): > 100 µM | TGI (A549 NSCLC): > 100 µM | TGI (HT29 colon): > 100 µM | TGI (MCF7 breast): > 100 µM | TGI (MALME-3M melanoma): > 100 µM | TGI (BT-549 breast): > 100 µM | TGI (MOLT-4 leukemia): > 100 µM | TGI (U251 CNS): > 100 µM | TGI (HCT-15 colon): > 100 µM | TGI (A498 renal): > 100 µM | TGI (SW-620 colon): > 100 µM | TGI (MDA-N): > 100 µM | TGI (NCI-H23 lung): > 100 µM | TGI (OVCAR-8 ovarian): > 100 µM | TGI (TK-10 renal): > 100 µM | TGI (LOX IMVI melanoma): > 100 µM | TGI (SNB-75 CNS): > 100 µM | TGI (HS 578T breast): > 100 µM | TGI (DU-145 prostate): > 100 µM | TGI (UACC-257 melanoma): > 100 µM | TGI (786-0 renal): > 100 µM | TGI (MDA-MB-231 breast): > 100 µM | TGI (K-562 leukemia): > 100 µM

O=C1CC2(CCC(O)(c3cccc4ccccc34)C(C(=O)c3cccc4ccccc34)C2)C(=O)c2ccccc2N1 (centres undefined)
TGI (HOP-92 NSCLC): 36.7 µM | TGI (RXF 393 renal): 36.9 µM | TGI (NCI-H460 lung): 23.6 µM | TGI (SN12C renal): > 100 µM | TGI (NCI-H226 lung): > 100 µM | TGI (SF-295 CNS): > 100 µM | TGI (IGROV1 ovarian): > 100 µM | TGI (UO-31 renal): > 100 µM | TGI (CAKI-1 renal): > 100 µM | TGI (HCC-2998 colon): > 100 µM | TGI (SK-MEL-28 melanoma): > 100 µM | TGI (UACC-62 melanoma): > 100 µM | TGI (SNB-19 CNS): 47.7 µM | TGI (EKVX NSCLC): > 100 µM | TGI (OVCAR-3 ovarian): > 100 µM | TGI (PC-3 prostate): > 100 µM | TGI (MDA-MB-435): > 100 µM | TGI (NCI/ADR-RES ovarian): > 100 µM | TGI (SF-268 CNS): 91.6 µM | TGI (HOP-62 NSCLC): 40.4 µM | TGI (SK-MEL-2 melanoma): > 100 µM | TGI (HCT-116 colon): > 100 µM | TGI (SK-MEL-5 melanoma): > 100 µM | TGI (SF-539 CNS): > 100 µM | TGI (SR leukemia): > 100 µM | TGI (M14 melanoma): > 100 µM | TGI (T-47D breast): > 100 µM | TGI (COLO 205 colon): > 100 µM | TGI (OVCAR-5 ovarian): > 100 µM | TGI (SK-OV-3 ovarian): > 100 µM | TGI (A549 NSCLC): > 100 µM | TGI (HT29 colon): > 100 µM | TGI (MCF7 breast): > 100 µM | TGI (MALME-3M melanoma): > 100 µM | TGI (BT-549 breast): > 100 µM | TGI (MOLT-4 leukemia): > 100 µM | TGI (U251 CNS): > 100 µM | TGI (HCT-15 colon): > 100 µM | TGI (A498 renal): > 100 µM | TGI (SW-620 colon): > 100 µM | TGI (MDA-N): > 100 µM | TGI (NCI-H23 lung): > 100 µM | TGI (OVCAR-8 ovarian): > 100 µM | TGI (TK-10 renal): > 100 µM | TGI (LOX IMVI melanoma): > 100 µM | TGI (SNB-75 CNS): 34.3 µM | TGI (HS 578T breast): 47.9 µM | TGI (DU-145 prostate): > 100 µM | TGI (UACC-257 melanoma): > 100 µM | TGI (MDA-MB-231 breast): 68 µM | TGI (K-562 leukemia): > 100 µM

Cc1ccc(S(=O)(=O)NCCN(CCNS(=O)(=O)c2ccc(C)cc2)S(=O)(=O)c2ccc(C)cc2)cc1
TGI (RXF 393 renal): > 100 µM | TGI (NCI-H460 lung): > 100 µM | TGI (SN12C renal): > 100 µM | TGI (KM12 colon): > 100 µM | TGI (SF-295 CNS): > 100 µM | TGI (RPMI-8226 leukemia): > 100 µM | TGI (IGROV1 ovarian): > 100 µM | TGI (UO-31 renal): > 100 µM | TGI (CAKI-1 renal): > 100 µM | TGI (HCC-2998 colon): > 100 µM | TGI (SK-MEL-28 melanoma): > 100 µM | TGI (ACHN renal): > 100 µM | TGI (UACC-62 melanoma): > 100 µM | TGI (SNB-19 CNS): > 100 µM | TGI (EKVX NSCLC): > 100 µM | TGI (OVCAR-3 ovarian): > 100 µM | TGI (PC-3 prostate): > 100 µM | TGI (MDA-MB-435): > 100 µM | TGI (NCI/ADR-RES ovarian): > 100 µM | TGI (SF-268 CNS): > 100 µM | TGI (OVCAR-4 ovarian): 56 µM | TGI (HOP-62 NSCLC): > 100 µM | TGI (CCRF-CEM leukemia): > 100 µM | TGI (SK-MEL-2 melanoma): > 100 µM | TGI (HCT-116 colon): > 100 µM | TGI (SK-MEL-5 melanoma): > 100 µM | TGI (SF-539 CNS): > 100 µM | TGI (SR leukemia): > 100 µM | TGI (M14 melanoma): > 100 µM | TGI (T-47D breast): > 100 µM | TGI (COLO 205 colon): > 100 µM | TGI (OVCAR-5 ovarian): > 100 µM | TGI (NCI-H522 lung): > 100 µM | TGI (SK-OV-3 ovarian): > 100 µM | TGI (A549 NSCLC): > 100 µM | TGI (HT29 colon): > 100 µM | TGI (MCF7 breast): > 100 µM | TGI (MALME-3M melanoma): 60 µM | TGI (BT-549 breast): > 100 µM | TGI (MOLT-4 leukemia): > 100 µM | TGI (U251 CNS): > 100 µM | TGI (HCT-15 colon): > 100 µM | TGI (A498 renal): > 100 µM | TGI (SW-620 colon): > 100 µM | TGI (MDA-N): > 100 µM | TGI (NCI-H23 lung): > 100 µM | TGI (OVCAR-8 ovarian): > 100 µM | TGI (TK-10 renal): > 100 µM | TGI (LOX IMVI melanoma): > 100 µM | TGI (HS 578T breast): > 100 µM | TGI (DU-145 prostate): > 100 µM | TGI (UACC-257 melanoma): > 100 µM | TGI (786-0 renal): > 100 µM | TGI (MDA-MB-231 breast): > 100 µM | TGI (K-562 leukemia): > 100 µM
